#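 Where inhibition never reached the appropriate level, the endpoint shown equals the highest concentration tested. Otherwise, values were interpolated linearly from a five-concentration, 48-hour dose response in 96-well plates. At the GI50, growth is halved.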 Active and inactive are the calls of the source. Cut-off read from the data, not from the text of the source: active = GI50 up to about 1.1 µM and inactive = higher.
# Legend:
# Assay in all cases: inhibition of tumour cell growth, NCI panel, 48 h
# UACC-257 = test system: UACC-257
# A549 = test system: A549
# HOP-92 = test system: HOP-92
# RXF 393 = test system: RXF 393
# HOP-62 = test system: HOP-62
# UACC-62 = test system: UACC-62
# SNB-78 = test system: SNB-78
# RPMI-8226 = test system: RPMI-8226
# SF-539 = test system: SF-539
# IGROV-1 = test system: IGROV-1
# LXFL 529 = test system: LXFL 529
# KM-20L2 = test system: KM-20L2
# DLD-1 = test system: DLD-1
# Malme-3M = test system: Malme-3M
# M19-MEL = test system: M19-MEL
# SNB-75 = test system: SNB-75
# OVCAR-4 = test system: OVCAR-4
# TK-10 = test system: TK-10
# EKVX = test system: EKVX
# SK-OV-3 = test system: SK-OV-3
# SF-295 = test system: SF-295
# NCI-H460 = test system: NCI-H460
# OVCAR-5 = test system: OVCAR-5
# A498 = test system: A498
# SN12C = test system: SN12C
# M14 = test system: M14
# UO-31 = test system: UO-31
# HL-60 = test system: HL-60
# SF-268 = test system: SF-268
# SK-MEL-5 = test system: SK-MEL-5
# OVCAR-8 = test system: OVCAR-8
# HT-29 = test system: HT-29
# SK-MEL-2 = test system: SK-MEL-2
# ACHN = test system: ACHN
# CAKI-1 = test system: CAKI-1
# HCT-15 = test system: HCT-15
# LOX IMVI = test system: LOX IMVI
# HCT-116 = test system: HCT-116
# SR = test system: SR
# KM12 = test system: KM12
# SNB-19 = test system: SNB-19
# XF498 = test system: XF498
# CCRF-CEM = test system: CCRF-CEM
# K562 = test system: K562
# NCI-H522 = test system: NCI-H522
# RXF 631 = test system: RXF 631
# SW-620 = test system: SW-620
# 786-0 = test system: 786-0
# OVCAR-3 = test system: OVCAR-3
# NCI-H226 = test system: NCI-H226
# U-251 = test system: U-251
# NCI-H23 = test system: NCI-H23
# DMS-273 = test system: DMS-273
# COLO 205 = test system: COLO 205
# HCC 2998 = test system: HCC 2998
# MOLT-4 = test system: MOLT-4
# SK-MEL-28 = test system: SK-MEL-28
# DMS-114 = test system: DMS-114
smiles,measurement,setting,value
CC(=O)C(CN(Cc1ccccc1)Cc1ccccc1)C(c1ccccc1)c1c(O)c2ccccc2oc1=O (stereo unspecified),GI50,UACC-257,> 100 µM (inactive)
same,GI50,A549,> 100 µM (inactive)
same,GI50,HOP-92,18.9 µM (inactive)
same,GI50,RXF 393,> 100 µM (inactive)
same,GI50,HOP-62,> 100 µM (inactive)
same,GI50,UACC-62,> 100 µM (inactive)
same,GI50,SNB-78,> 100 µM (inactive)
same,GI50,RPMI-8226,> 100 µM (inactive)
same,GI50,SF-539,> 100 µM (inactive)
same,GI50,IGROV-1,> 100 µM (inactive)
same,GI50,LXFL 529,> 100 µM (inactive)
same,GI50,KM-20L2,> 100 µM (inactive)
same,GI50,DLD-1,> 100 µM (inactive)
same,GI50,Malme-3M,> 100 µM (inactive)
same,GI50,M19-MEL,> 100 µM (inactive)
same,GI50,SNB-75,> 100 µM (inactive)
same,GI50,OVCAR-4,> 100 µM (inactive)
same,GI50,TK-10,> 100 µM (inactive)
same,GI50,EKVX,> 100 µM (inactive)
same,GI50,SK-OV-3,> 100 µM (inactive)
same,GI50,SF-295,> 100 µM (inactive)
same,GI50,NCI-H460,> 100 µM (inactive)
same,GI50,OVCAR-5,> 100 µM (inactive)
same,GI50,A498,> 100 µM (inactive)
same,GI50,SN12C,> 100 µM (inactive)
same,GI50,M14,> 100 µM (inactive)
same,GI50,UO-31,> 100 µM (inactive)
same,GI50,HL-60,> 100 µM (inactive)
same,GI50,SF-268,> 100 µM (inactive)
same,GI50,SK-MEL-5,> 100 µM (inactive)
same,GI50,OVCAR-8,> 100 µM (inactive)
same,GI50,HT-29,> 100 µM (inactive)
same,GI50,SK-MEL-2,> 100 µM (inactive)
same,GI50,ACHN,> 100 µM (inactive)
same,GI50,CAKI-1,> 100 µM (inactive)
same,GI50,HCT-15,> 100 µM
same,GI50,LOX IMVI,> 100 µM (inactive)
same,GI50,HCT-116,> 100 µM (inactive)
same,GI50,SR,> 100 µM (inactive)
same,GI50,KM12,> 100 µM (inactive)
same,GI50,SNB-19,> 100 µM (inactive)
same,GI50,XF498,> 100 µM (inactive)
same,GI50,CCRF-CEM,> 100 µM (inactive)
same,GI50,K562,> 100 µM (inactive)
same,GI50,NCI-H522,> 100 µM (inactive)
same,GI50,RXF 631,> 100 µM (inactive)
same,GI50,SW-620,71.4 µM (inactive)
same,GI50,786-0,> 100 µM (inactive)
same,GI50,OVCAR-3,> 100 µM (inactive)
same,GI50,NCI-H226,> 100 µM (inactive)
same,GI50,U-251,> 100 µM (inactive)
same,GI50,NCI-H23,> 100 µM (inactive)
CC1CC2C3CC(F)C4=CC(=O)C=CC4(C)C3(F)C(O)CC2(C)C1(O)C(=O)CO (stereo unspecified),GI50,UACC-257,> 100 µM (inactive)
same,GI50,A549,> 100 µM (inactive)
same,GI50,HOP-92,> 100 µM (inactive)
same,GI50,RXF 393,> 100 µM (inactive)
same,GI50,DMS-273,> 100 µM (inactive)
same,GI50,HOP-62,> 100 µM (inactive)
same,GI50,UACC-62,> 100 µM (inactive)
same,GI50,SNB-78,> 100 µM (inactive)
same,GI50,RPMI-8226,> 100 µM (inactive)
same,GI50,SF-539,> 100 µM (inactive)
same,GI50,IGROV-1,> 100 µM (inactive)
same,GI50,COLO 205,> 100 µM (inactive)
same,GI50,KM-20L2,> 100 µM (inactive)
same,GI50,DLD-1,> 100 µM (inactive)
same,GI50,Malme-3M,> 100 µM (inactive)
same,GI50,M19-MEL,> 100 µM (inactive)
same,GI50,SNB-75,> 100 µM (inactive)
same,GI50,HCC 2998,> 100 µM (inactive)
same,GI50,MOLT-4,> 100 µM (inactive)
same,GI50,OVCAR-4,> 100 µM (inactive)
same,GI50,TK-10,> 100 µM (inactive)
same,GI50,EKVX,> 100 µM (inactive)
same,GI50,SK-OV-3,< 0.01 µM (active)
same,GI50,SK-MEL-28,> 100 µM (inactive)
same,GI50,SF-295,> 100 µM (inactive)
same,GI50,NCI-H460,> 100 µM (inactive)
same,GI50,OVCAR-5,> 10 µM (inactive)
same,GI50,M14,> 100 µM (inactive)
same,GI50,UO-31,> 100 µM (inactive)
same,GI50,HL-60,> 100 µM (inactive)
same,GI50,SF-268,> 100 µM (inactive)
same,GI50,SK-MEL-5,> 100 µM (inactive)
same,GI50,HT-29,> 100 µM (inactive)
same,GI50,SK-MEL-2,> 100 µM (inactive)
same,GI50,ACHN,> 100 µM (inactive)
same,GI50,DMS-114,> 100 µM (inactive)
same,GI50,CAKI-1,> 100 µM (inactive)
same,GI50,HCT-15,> 100 µM
same,GI50,LOX IMVI,> 100 µM (inactive)
same,GI50,HCT-116,> 100 µM (inactive)
same,GI50,SR,> 100 µM (inactive)
same,GI50,KM12,> 100 µM (inactive)
same,GI50,SNB-19,> 100 µM (inactive)
same,GI50,XF498,> 100 µM (inactive)
same,GI50,CCRF-CEM,0.0112 µM (active)
same,GI50,K562,> 100 µM (inactive)
same,GI50,NCI-H522,> 100 µM (inactive)
same,GI50,RXF 631,> 100 µM (inactive)
same,GI50,SW-620,> 100 µM (inactive)
same,GI50,786-0,> 100 µM (inactive)
same,GI50,OVCAR-3,> 100 µM (inactive)
same,GI50,NCI-H226,> 100 µM (inactive)
same,GI50,U-251,> 100 µM (inactive)
same,GI50,NCI-H23,> 100 µM (inactive)
